Test results as given in publication PMC2959089, “The intriguing Cyclophilin A-HIV-1 Vpr interaction: prolyl cis/trans isomerisation catalysis and specific binding” (BMC Structural Biology, 2010).
No end group written: not given here.

Tests used:
CypA [1] = target: T1, CypA (Homo sapiens, UniProt P62937); assay: biochemical; format: binding; settings: for kon: pH 7.4, read-out: ka1 (association rate constant), two state reaction model; for koff: pH 7.4, read-out: kd1 (dissociation rate constant), two state reaction model
T1 construct: made in house; host or cells: E. coli BL21(DE3)
Description: The two-state binding model, also called the conformational change model, is based on a 1:1 binding of an analyte to the immobilized ligand followed by a conformational change in the complex. This model should be regarded as indicative, rather than as direct evidence, for a conformational change upon binding. […] From the two-state binding model the association rate (ka1), dissociation rate (kd1), forward rate (ka2) and backward rate (kd2) constants were calculated, and subsequently the magnitude of the dissociation constants (KD) could be calculated ([…] (Table 1).
(§1) SPR measurements were performed at 25°C on a Biacore T100 instrument (Biacore AB, Uppsala, Sweden) equipped with a CM5 research-grade sensor chip. CypA was immobilized in FC 2 and FC 4 to 180 and 918 RU (response units) respectively, using standard amine-coupling chemistry in two flow cells. FC 1 and FC 3 were treated according to FC 2 and FC 4 except for CypA immobilisation and functioned as reference cells. The synthetic Vpr peptides sVpr^1-20, sVpr^21-40, sVpr^25-40, sVpr^30-40, sVpr^32-38 and sVpr^33-37 were dissolved at four concentrations ranging from 50 to 400 μM in the running buffer (HBS-P buffer pH 7.4). […] The samples were injected over the flow cells at a flow rate of 30 μl/min. Data were collected at 2.5 Hz during the 60 s association and 120 s dissociation phase, and were automatically corrected for bulk buffer effects and unspecific binding of Vpr peptides to the chip matrix.
Affinity, association and dissociation rate constants were obtained from sensograms by the Biacore T100 evaluation software version 2.0.1 in accordance with the global curve fit model. Sensorgram data for the four different concentrations were fitted to several binding models including 1:1 (Langmuir) binding model (A+B ↔ AB), two-state reaction (conformational change) model (A+B ↔ AB ↔ AB*) and heterogeneous ligand model (interaction one: A+B1 ↔ AB1; interaction two: A+B2 ↔ AB2). Kinetic constants were calculated for the best fitted model.

[2] = Solubility of sVpr peptides in aqueous buffer (observation during SPR sample preparation); format: physicochemical; settings: for Solubility in SPR running buffer: HBS-P buffer pH 7.4, dissolved at 25-200 μM instead of 50-400 μM
Description: as §1

CypA [3] = target: T1, CypA; assay: 2D 1H NOESY/ROESY NMR exchange spectroscopy of CypA prolyl cis/trans isomerase activity on sVpr peptides and its inhibition by cyclosporine A; format: biochemical; settings: excess cyclosporine A (0.1 mg in 5 μl DMSO-d6) added after CypA
Description: After acquisition of 1 D ^1H and 2D ^1H TOCSY, NOESY and ROESY NMR spectra of pure sVpr^1-20 and sVpr^21-40, 50-100 μl 0.11 mM CypA dissolved in aqueous Tris buffer at pH 7 was added to the individual peptide solutions, followed by acquisition of identical series of NMR spectra (1 D ^1H and 2D ^1H TOCSY, NOESY and ROESY) to those of the pure peptides. Exchange peaks occurring in the spectra after addition of CypA were identified by supposition of analogous NOESY and/or ROESY spectra prior to and after addition of CypA using Bruker Topspin 1.3 software.
The catalytic prolyl cis/trans isomerase interactions of CypA with sVpr^1-20 and sVpr^21-40 was inhibited by addition of excessive amounts of cyclosporine A dissolved in 5 μl deuterated dimethylsulfoxide (DMSO-d6).

HIV = settings: specific inhibitors of the prolyl cis/trans isomerase activity of CypA; cited from earlier work
Description: The interaction of HIV-1 Vpr with CypA is known to occur in vitro and in vivo [9-11]. […] Nonetheless, spe ...

T1 sequence (P62937 whole entry): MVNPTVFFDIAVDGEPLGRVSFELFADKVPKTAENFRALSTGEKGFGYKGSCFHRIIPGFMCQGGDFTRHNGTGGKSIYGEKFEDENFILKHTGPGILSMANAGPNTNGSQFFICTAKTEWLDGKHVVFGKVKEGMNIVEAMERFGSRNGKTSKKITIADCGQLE

CC[C@H](C)[C@H](NC(=O)[C@H](CCCNC(=N)N)NC(=O)[C@@H]1CCCN1C(=O)[C@H](Cc1ccccc1)NC(=O)[C@H](Cc1c[nH]cn1)NC(=O)[C@H](CCCNC(=N)N)NC(=O)[C@@H](NC(=O)[C@H](C)NC(=O)[C@H](CCC(=O)O)NC(=O)[C@H](CO)NC(=O)[C@H](CCCCN)NC(=O)[C@H](CC(C)C)NC(=O)[C@H](CCC(=O)O)NC(=O)[C@H](CCC(=O)O)NC(=O)[C@H](CC(C)C)NC(=O)[C@H](CC(C)C)NC(=O)[C@H](CCC(=O)O)NC(=O)[C@H](CC(C)C)NC(=O)[C@@H](NC(=O)[C@@H](NC(=O)[C@H](Cc1c[nH]c2ccccc12)NC(=O)[C@H](CCC(=O)O)NC(=O)[C@H](CC(N)=O)NC(=O)[C@H](Cc1ccc(O)cc1)NC(=O)[C@H](CC(N)=O)NC(=O)[C@H](CCC(=O)O)NC(=O)[C@H](CCCNC(=N)N)NC(=O)[C@H](CCC(N)=O)NC(=O)[C@H](CC(N)=O)NC(=O)CNC(=O)[C@H](CCC(N)=O)NC(=O)[C@H](CC(=O)O)NC(=O)[C@H](CCC(=O)O)NC(=O)[C@H](CC(N)=O)NC(=O)[C@H](C)NC(=O)[C@H](CCC(N)=O)NC(=O)[C@H](CCC(=O)O)NC(=O)[C@@H](N)CCSC)[C@@H](C)O)[C@@H](C)O)C(C)C)C(=O)N[C@@H](Cc1c[nH]c2ccccc12)C(=O)N[C@@H](CC(C)C)C(=O)N[C@@H](Cc1c[nH]cn1)C(=O)O [sVpr^1-40 P5,10,14 N]
kon (CypA [1]): 46 M⁻¹ s⁻¹ | koff (CypA [1]): 0.56 s⁻¹ | Solubility in SPR running buffer [2]: restricted solubility | Solubility in aqueous buffer solution ([2]; aqueous buffer solution at pH 7, offered as possible reason for unreliable KD): relatively poor solubility

CC[C@H](C)[C@H](NC(=O)[C@H](CCCNC(=N)N)NC(=O)[C@@H]1CCCN1C(=O)[C@H](Cc1ccccc1)NC(=O)[C@H](Cc1c[nH]cn1)NC(=O)[C@H](CCCNC(=N)N)NC(=O)[C@@H](NC(=O)[C@H](C)NC(=O)[C@H](CCC(=O)O)NC(=O)[C@H](CO)NC(=O)[C@H](CCCCN)NC(=O)[C@H](CC(C)C)NC(=O)[C@H](CCC(=O)O)NC(=O)[C@H](CCC(=O)O)NC(=O)[C@H](CC(C)C)NC(=O)[C@H](CC(C)C)NC(=O)[C@H](CCC(=O)O)NC(=O)[C@H](CC(C)C)NC(=O)[C@@H](NC(=O)[C@@H](NC(=O)[C@H](Cc1c[nH]c2ccccc12)NC(=O)[C@H](CCC(=O)O)NC(=O)[C@H](CC(N)=O)NC(=O)[C@H](Cc1ccc(O)cc1)NC(=O)[C@@H]1CCCN1C(=O)[C@H](CCC(=O)O)NC(=O)[C@H](CCCNC(=N)N)NC(=O)[C@H](CCC(N)=O)NC(=O)[C@@H]1CCCN1C(=O)CNC(=O)[C@H](CCC(N)=O)NC(=O)[C@H](CC(=O)O)NC(=O)[C@H](CCC(=O)O)NC(=O)[C@@H]1CCCN1C(=O)[C@H](C)NC(=O)[C@H](CCC(N)=O)NC(=O)[C@H](CCC(=O)O)NC(=O)[C@@H](N)CCSC)[C@@H](C)O)[C@@H](C)O)C(C)C)C(=O)N[C@@H](Cc1c[nH]c2ccccc12)C(=O)N[C@@H](CC(C)C)C(=O)N[C@@H](Cc1c[nH]cn1)C(=O)O [sVpr^1-40]
Kd (CypA [1]): 284 µM | kon (CypA [1]): 752 M⁻¹ s⁻¹ | koff (CypA [1]): 0.37 s⁻¹ | Solubility in SPR running buffer [2]: restricted solubility

CC[C@H](C)[C@H](NC(=O)[C@H](CCCNC(=N)N)NC(=O)[C@@H]1CCCN1C(=O)[C@H](Cc1ccccc1)NC(=O)[C@H](Cc1c[nH]cn1)NC(=O)[C@H](CCCNC(=N)N)NC(=O)[C@@H](NC(=O)[C@H](C)NC(=O)[C@H](CCC(=O)O)NC(=O)[C@H](CO)NC(=O)[C@H](CCCCN)NC(=O)[C@H](CC(C)C)NC(=O)[C@H](CCC(=O)O)NC(=O)[C@H](CCC(=O)O)NC(=O)[C@H](CC(C)C)NC(=O)[C@H](CC(C)C)NC(=O)[C@@H](N)CCC(=O)O)C(C)C)C(=O)N[C@@H](Cc1c[nH]c2ccccc12)C(=O)N[C@@H](CC(C)C)C(=O)N[C@@H](Cc1c[nH]cn1)C(=O)O [sVpr^21-40]
kon (CypA [1]): 466 M⁻¹ s⁻¹ | koff (CypA [1]): 0.164 s⁻¹

CC[C@H](C)[C@H](NC(=O)[C@H](CCCNC(=N)N)NC(=O)[C@@H]1CCCN1C(=O)[C@H](Cc1ccccc1)NC(=O)[C@H](Cc1c[nH]cn1)NC(=O)[C@H](CCCNC(=N)N)NC(=O)[C@@H](NC(=O)[C@H](C)NC(=O)[C@H](CCC(=O)O)NC(=O)[C@H](CO)NC(=O)[C@H](CCCCN)NC(=O)[C@H](CC(C)C)NC(=O)[C@@H](N)CCC(=O)O)C(C)C)C(=O)N[C@@H](Cc1c[nH]c2ccccc12)C(=O)N[C@@H](CC(C)C)C(=O)N[C@@H](Cc1c[nH]cn1)C(=O)O [sVpr^25-40]
kon (CypA [1]): 2000 M⁻¹ s⁻¹ | koff (CypA [1]): 0.942 s⁻¹

CC[C@H](C)[C@H](NC(=O)[C@H](CCCNC(=N)N)NC(=O)[C@@H]1CCCN1C(=O)[C@H](Cc1ccccc1)NC(=O)[C@H](Cc1c[nH]cn1)NC(=O)[C@H](CCCNC(=N)N)NC(=O)[C@@H](NC(=O)[C@H](C)N)C(C)C)C(=O)N[C@@H](Cc1c[nH]c2ccccc12)C(=O)N[C@@H](CC(C)C)C(=O)N[C@@H](Cc1c[nH]cn1)C(=O)O [sVpr^30-40]
kon (CypA [1]): 2470 M⁻¹ s⁻¹ | koff (CypA [1]): 0.527 s⁻¹

HFPRI [sVpr^33-37]
kon (CypA [1]): 120 M⁻¹ s⁻¹ | koff (CypA [1]): 0.66 s⁻¹

RHFPRIW [sVpr^32-38]
kon (CypA [1]): 924 M⁻¹ s⁻¹ | koff (CypA [1]): 0.67 s⁻¹

cyclosporine A
Inhibition of CypA prolyl cis/trans isomerase activity (exchange crosspeaks after addition of inhibitor) (CypA [3]; substrate sVpr1-20): disappearance of the prolyl cis/trans exchange crosspeaks | Inhibition of CypA prolyl cis/trans isomerase activity (exchange crosspeaks after addition of inhibitor) (CypA [3]; substrate sVpr21-40): prolyl cis/trans exchange crosspeaks disappeared | Inhibition of HIV replication (HIV): inhibit HIV replication
